{"source": "patent US20210205348A1", "about": "“Methods for the Treatment of Bladder Cancer” (Eisai R&D Management Co., Ltd., priority 2018, published 2021)", "key": {"[1]": {"system": "GL261 mouse glioma cells", "assay": "GL261 brain orthotopic model", "type": "in vivo", "settings": "10 mg/kg intratumorally, a single time", "from_the_text": "GL261 is a murine glioma cell line."}, "[2]": {"system": "CT26 tumor cells", "assay": "CT26 dual tumor model (mouse colon cancer model)", "protocol": "For study B, treatment was started 8 days (0.6 mg/kg, and 10 mg/kg) after the tumor implantation, when the average tumors reached approximately 120 mm^3.\nAll the mice in the study have two subcutaneous CT26 tumors. The “treated tumor” indicates the tumor with compound direct administration, while “untreated tumor” indicates the tumor without direct compound administration. Tumor volume was followed throughout the experiment. Tumor volume is measured two times weekly after the start of treatment. Tumor burden is calculated from caliper measurements by the formula for the volume of a prolate ellipsoid (L×W^2)/2 where L and W are the respective orthogonal length and width measurements (mm),"}, "[3]": {"system": "MBT-2 tumor cells", "assay": "MBT-2 murine bladder cancer orthotopic model", "type": "in vivo, mouse", "experimental": "The protocol with HCl pre-treatment procedure described by Lee, et al. was applied to establish the model. In brief, 30 μL 0.1 N HCl solution was injected into mouse bladder through a catheter and HCl solution was allowed to remain in the bladder for 15 seconds. Then the HCl solution was replaced by 30 μL 0.1N NaOH solution followed by one flushing step with 1 X PBS (pH7.4). The follow-up tumor cell implantation procedure was modified from the original literature. In brief, after a flushing step, MBT-2 tumor cells (2 ×10^6 cells in 50 μL RPMI1640 medium) were instilled into the bladder and allowed to remain for 45 minutes. At the end of this 45 minute period, the bladder was drained.\nOn each day of dosing BCG was diluted in NaCl 0.9% (Lavoisier, France) to reach the final concentration of 16.875 mg/mL for dosing. Any leftover dosing solution was discarded after use. For anti-PD-1 antibody, 1 x PBS (Lonza, France) was used to dilute the stock solution to prepare 1 mg/mL working solution for dosing.\nFrom days 20-21, tumor growth in bladder was quantitated by MRI (Magnetic resonance imaging) and tumor sizes of all mice were graphed as shown in FIG. 7."}, "[4]": {"system": "hepatocytes of Cynomoigus monkey", "assay": "Hepatocyte incubation, identification of potential metabolites", "type": "in vitro ADME", "settings": "10 μmol/L", "experimental": "(§1) Prior to incubations, the cryopreserved hepatocytes were thawed in a water bath at 37° C. One tube of cryopreserved hepatocytes was added to each 50-mL conical tube of cryopreserved hepatocyte recovery medium (UCRM) obtained from In Vitro ADMET Laboratories (Columbia, Md.). The cells were spun in a Beckman centrifuge (Brea, Calif.) with a GH 3.8 rotor at 740 rpm for 10 minutes at […]. The supernatant was removed and the cells were re-suspended in plating media for counting. After the cells were re-suspended in plating media, 20 μL of the re-suspension was transferred and mixed with 20 μL of AOPI staining solution. The solution was gently mixed and cells were counted using a Cellometer (Nexcelom, Lawrence, Mass.). After counting, the cells were then re-suspended at 1 or 2 million viable cells/mL in Williams' E media containing 2 mmol/L L-glutamine (pH 7.4).\n(§2) The hepatocyte suspension (50 μL/well) was added into a 48-well plate. […] The plate was placed into a tissue culture incubator (5% CO2/95% air humidified atmosphere and 37° C.), and the reactions were terminated with 200 μL of stop solution consisting of 100% methanol/acetonitrile (1/1, v/v) with 2010 ng/mL furosemide and 0.2 μmol/L (R)-propranolol at 5, 30, 60, 120, 180 and 240 minutes. The mixture was centrifuged and filtered, and the supernatant was collected for analysis. The final concentrations of cryopreserved hepatocytes were 1×10^6 cells/mL.\n(§3) The LC-MS/MS system was composed of a Shimadzu HPLC and an AB-SCIEX TripleTOF 5600 hybrid quadrupole and TOF mass spectrometer (Framingham, Mass.). The Shimadzu HPLC (Kyoto, Japan), consisted of a communications bus module (CBM-20A), an auto-sampler (SIL-30AC) with an attached rack changer (Rack Changer II) two pumps (LC-30AD) and a column oven (CTO-30A). The mass spectrometer was calibrated using the AB-SCIEX APCI both Negative and Positive Calibration Solutions (Framingham, Mass.). The samples obtained from incubations with hepatocytes were analyzed under both negative and positive scan modes. The basic analytical method and instrumental conditions are summarized below. Modification of the spectrometer settings was dependent on the necessity of the analyte.\n(§4) Mass spectrometry data were acquired using AB-Sciex Analyst TF (Version 1.5.1; Framingham, Mass.). Chromatograms and spectra were obtained using AB-Sciex PeakView (Version 2.2.0.1; Framingham, Mass.). The comparison of relative peak areas for extracted ion chromatograms were based on ±0.0002 Da of the expected exact mass-to-charge ratio (m/z) for each analyte of interest."}, "[5]": {"system": "hepatocytes of Beagle dog", "assay": "Hepatocyte incubation, identification of potential metabolites", "type": "in vitro ADME", "settings": "10 μmol/L", "experimental": "as §1, §2, §3, §4"}, "[6]": {"system": "hepatocytes of human", "assay": "Hepatocyte incubation, identification of potential metabolites", "type": "in vitro ADME", "settings": "10 μmol/L", "experimental": "as §1, §2, §3, §4"}, "[7]": {"system": "hepatocytes of Sprague Dawley rat", "assay": "Hepatocyte incubation, identification of potential metabolites", "type": "in vitro ADME", "settings": "10 μmol/L", "experimental": "as §1, §2, §3, §4"}, "[8]": {"system": "hepatocytes of CD-1 mouse", "assay": "Hepatocyte incubation, identification of potential metabolites", "type": "in vitro ADME", "settings": "10 μmol/L", "experimental": "as §1, §2, §3, §4"}, "[9]": {"system": "IFNβ", "assay": "Ex vivo human PBMC stimulation assay, IFNβ protein", "type": "cell-based", "settings": "24 hours, average of five donors", "experimental": "Human blood from 5 healthy donors was collected using 10.0 mL BD Vacutainer Sodium heparin tubes (cat #367874). Peripheral blood mononuclear cell (PBMC) isolation was done using SIGMA ACCUSPIN 50 ml Tubes (cat #A2055) and sigma ACCUSPIN System-HISTOPAQUE-1077 (cat #A7054) using protocol provided by manufacturer. […] PBMC were counted and finally suspended @ 1x10e6/ml in RPMI (corning cat #10-041-CV supplemented with 10% fetal bovine serum (FBS) (Gibco cat #20140.79). 1ml of cell (1×10e6) were transferred into Falcon 5 mL Round Bottom Polypropylene Test Tube (cat #352063) and stimulated with different concentrations (0, 0.1, 1, 10 uM) for 24 hours in 5% CO2 incubator at 37° C.\nAfter 24 hours of incubation the tubes were centrifuged at 1400 rpm for 5 minutes and supernatants were harvested. Supernatant were stored in −80° C. for subsequent IFNβ measurement. IFNβ measurement was done using Human IFN-β Base Kit (Meso Scale Diagnostics cat #K151ADA) and protocol provided by manufacturer was used. IFN-beta estimation was done by reading assay plate at MESO SECTOR Imager 2400 and using MSD Discovery Workbench 4.0 program. After 24 hours IFNβ protein was analyzed.\nResults shown in Table 3 reflect an average of measurements conducted using five different donors."}, "[10]": {"system": "CT26 tumor cells", "assay": "CT26 liver metastatic model", "settings": "10 mg/kg intratumorally, a single time"}}}
{"smiles": "O=P1(S)OCC2OC3C(F)C2OP(=O)(S)OCC2OC(C(F)C2O1)n1cnc2c(ncnc21)NCC=CCNc1ncnc2c1ncn23", "note": "(centres unmarked) [Compound 1a]", "values": [{"measurement": "activity at local sc tumors", "setting": "[1]", "value": "potent activity"}, {"measurement": "curative systemic activity (treated animals)", "setting": "[1]; into the sc tumor", "value": "5 of 8"}, {"measurement": "cure rate, treated tumors", "setting": "[2]; 0.6 mg/kg I.T. single dose", "value": 20, "unit": "%"}, {"measurement": "curative effects, untreated tumors", "setting": "[2]; 10 mg/kg I.T. single dose", "value": 80, "unit": "%"}, {"measurement": "animals cured, treated tumors", "setting": "[2]; 10 mg/kg I.T. single dose, end of study", "value": 100, "unit": "%"}, {"measurement": "effect on untreated tumors", "setting": "[2]; all the lower doses (0.6 to 5 mg/kg) I.T. single dose", "value": "tumor growth inhibition activity"}, {"measurement": "tumor volumes quantified by MRI", "setting": "[3]; days 20-21, 100, 200, 400 μg/mouse IVe Q7Dx3, also 400 μg/mouse with PD1 antibody (Groups 4 to 7), vs vehicle, BCG and PD1 antibody groups", "value": "much smaller tumor volumes"}, {"measurement": "survival relative to vehicle treated animals", "setting": "[3]; intravesicular, Q7Dx3 (FIG. 8)", "value": "statistically significant survival benefit"}, {"measurement": "formation of major metabolites", "setting": "[4]; monkey hepatocytes, LC-MS/MS", "value": "No apparent metabolite"}, {"measurement": "stability in incubations with hepatocytes", "setting": "[4]; monkey, up to 240 minutes", "value": "stable"}, {"measurement": "formation of major metabolites", "setting": "[5]; dog hepatocytes, LC-MS/MS", "value": "No apparent metabolite"}, {"measurement": "stability in incubations with hepatocytes", "setting": "[5]; dog, up to 240 minutes", "value": "stable"}, {"measurement": "formation of major metabolites", "setting": "[6]; human hepatocytes, LC-MS/MS", "value": "No apparent metabolite"}, {"measurement": "stability in incubations with hepatocytes", "setting": "[6]; human, up to 240 minutes", "value": "stable"}, {"measurement": "formation of major metabolites", "setting": "[7]; rat hepatocytes, LC-MS/MS", "value": "No apparent metabolite"}, {"measurement": "stability in incubations with hepatocytes", "setting": "[7]; rat, up to 240 minutes", "value": "stable"}, {"measurement": "formation of major metabolites", "setting": "[8]; mouse hepatocytes, LC-MS/MS", "value": "No apparent metabolite"}, {"measurement": "stability in incubations with hepatocytes", "setting": "[8]; mouse, up to 240 minutes", "value": "stable"}, {"measurement": "IFNβ", "setting": "[9]; 0.1 μM", "value": "21.3 ± 17.8", "unit": "pg/mL"}, {"measurement": "IFNβ", "setting": "[9]; 1 μM", "value": "227.5 ± 62.4", "unit": "pg/mL"}, {"measurement": "IFNβ", "setting": "[9]; 10 μM", "value": "540.2 ± 215.0", "unit": "pg/mL"}, {"measurement": "activity towards the local sc tumors", "setting": "[10]", "value": "potent activity"}, {"measurement": "curative systemic activity (treated animals)", "setting": "[10]; into the sc tumor", "value": "9 of 10"}]}
